US20170349532A1, “CATIONIC LIPID” (Kyowa Hakko Kirin Co., Ltd., priority 2011, published 2017)

Assay: Average particle diameter of preparation (Zetasizer Nano ZS)
Format: physicochemical
Settings: for average particle diameter of the complex between the cationic lipis and the nucleic acid in the preparation: Comparative Examples 1 to 8, prepared as Example 118 with apo-b siRNA; for Particle diameter of Preparetion: average particle diameter of cationic lipid/nucleic acid complex, Example 118 preparation: compound/PEG-DMPE Na/DSPC/cholesterol with apo-b siRNA
Text: Preparations were produced using the compounds obtained in Examples 1 to 117, as follows.
APO-B siRNA was used as the nucleic acid. APO-B siRNA suppresses expression of an apolipoprotein-B (hereinafter, “apo-b”) gene and has a sense strand with the base sequence 5′-GmUCAmUCACACmUGAAmUACCAAmU-3′ (the sugars attached to the bases appended with m are 2′-O-methyl-substituted riboses), and an antisense strand with the base sequence 5′-[…]-3′ (the 5′-end is phosphorylated). The sense strand and the antisense strand were obtained from Nippon EGT, GeneDesign, Inc., Invitrogen or Hokkaido System Science Co., Ltd., and annealed to prepare the nucleic acid (hereinafter, “apo-b siRNA”).
A solution comprising the constituent components was prepared by dissolving each of the weighed samples in 90 vol % ethanol in 8.947/1.059/5.708/13.697 mmol/L [compounds 1 to 117 obtained in Examples 1 to 117/sodium 1,2-dimyristoyl-sn-glycero-3-phosphoethanolamine-N-(methoxy(polyethylene glycol)-2000) (PEG-DMPE Na,N-(carbonylmethoxypolyethylene glycol 2000)-1,2-dimyristoyl-sn-glycero-3-phosphoethanolamine sodium salt, NOF Corporation)/distearoylphosphatidyl choline (DSPC, 1,2-distearoyl-sn-glycero-3-phosphocholine, NOF Corporation)/cholesterol (Avanti Polar Lipids)]. Separately, apo-b siRNA/distilled water (24 mg/mL) was diluted with a Tris-EDTA buffer (200 mM Tris-HCl, 20 mM EDTA, Invitrogen) and a 20 mM citric acid buffer (pH 5.0) to prepare a 1.5 mg/mL apo-b siRNA aqueous solution (2 mM Tris-EDTA/20 mM citric acid buffer, pH 5.0).
The resulting lipid solution was heated to 37° C., and a 100-μL portion was transferred to a preparation container. The apo-b siRNA aqueous solution (100 μL) was then added thereto while being stirred. Then, a 20 mM citric acid buffer (containing 300 mM NaCl, pH 6.0; 200 μL) was added to the lipid nucleic acid mixed suspension (200 μL) while being stirred. The siRNA concentration was brought to 10 μM by dropping a Dulbecco phosphate buffer (DPBS, Invitrogen; 662 μL), and preparations (compositions comprising compounds 1 to 117 and the nucleic acid) were obtained.
The average particle diameter of the complex between the cationic lipis and the nucleic acid in each preparation was measured with a particle diameter measurement device (Malvern; Zetasizer Nano ZS).

In the case of CCCCC/C=C\C/C=C\CCCCCCCCOC1CN(Cc2ccccc2)C[C@H]1OCCCCCCCC/C=C\C/C=C\CCCCC (stereo in doubt) [Compound VI-3, (3R,4R)-1-Benzyl-3,4-bis((9Z,12Z)-octadec-9,12-dienyloxy)pyrrolidine, reference compound], the “average particle diameter of the complex between the cationic lipis and the nucleic acid in the preparation” value (from here on “average particle diameter”) is reported as 167.8 nm.

For CCCCCCCC/C=C\CCCCCCCCO[C@@H]1CNC[C@H]1OCCCCCCCC/C=C\CCCCCCCC [Compound 4, (3R,4R)-3,4-bis((Z)-Octadec-9-enyloxy)pyrrolidine], the “Particle diameter of Preparetion” value was 160.6 nm.

For CCCCCCCC/C=C\CCCCCCCCOCCN(CCOCCCCCCCC/C=C\CCCCCCCC)C(=O)[C@@H](N)CCCCN [Compound 94, (S)-2,6-Diamino-N,N-bis(2-((Z)-octadec-9-enyloxy)ethyl)hexanamido], the “Particle diameter of Preparetion” value was 137.3 nm.

In the case of CCCCCCCC/C=C\CCCCCCCC(=O)OCCN(CCOC(=O)CCCCCCC/C=C\CCCCCCCC)CC(O)CO (stereo not shown) [Compound 83, 3-(bis(2-((Z)-Octadec-9-enoyloxy)ethyl)amino)propan-1,2-diol], the “Particle diameter of Preparetion” value is reported as 169.1 nm.

In the case of CCCCC/C=C\C/C=C\CCCCCCCC(=O)O[C@@H]1CNC[C@H]1OC(=O)CCCCCCC/C=C\C/C=C\CCCCC [Compound 2, (3R,4R)-Pyrrolidine-3,4-diyl di((9Z,12Z)-octadec-9,12-dienoate)], the “Particle diameter of Preparetion” value is reported as 139.6 nm.

With CCCCCCCC/C=C\CCCCCCCC(=O)OC[C@@H]1CN(C)C[C@H]1COC(=O)CCCCCCC/C=C\CCCCCCCC (relative stereo) [Compound 109, trans-1-Methyl-3,4-bis(((Z)-octadec-9-enoyloxy)methyl)pyrrolidine] the “Particle diameter of Preparetion” value was 129.6 nm.

For CCCCC/C=C\C/C=C\CCCCCCCCOC[C@@H]1CN(C)C[C@H]1COCCCCCCCC/C=C\C/C=C\CCCCC (relative stereo) [Compound 107, trans-1-Methyl-3,4-bis(((9Z,12Z)-octadec-9,12-dienyloxy)methyl)pyrrolidine], the “Particle diameter of Preparetion” value was 139.1 nm.

In the case of CCCCCCCC/C=C\CCCCCCCC(=O)OCC(C[N+](C)(C)C)OC(=O)CCCCCCC/C=C\CCCCCCCC.[Cl-] (stereo not shown) [Compound A-1, N(2,3-di-(9-(Z)-octadecenoyloxy))-prop-1-yl-N,N,N-trimethylammonium chloride, reference compound], the “average particle diameter” value is reported as 104.0 nm.

In the case of CCCCCCCC/C=C\CCCCCCCC(=O)OC[C@@H]1CNC[C@H]1COC(=O)CCCCCCC/C=C\CCCCCCCC (relative stereo) [Compound 104, trans-3,4-bis(((Z)-Octadec-9-enoyloxy)methyl)pyrrolidine], the “Particle diameter of Preparetion” value is reported as 141.5 nm.

In the case of CCCCCCCC/C=C\CCCCCCCC(=O)OCCN(CCOC(=O)CCCCCCC/C=C\CCCCCCCC)C(=O)[C@@H](N)CCCCN [Compound 97, (S)-2,6-Diamino-N,N-bis(2-((Z)-octadec-9-enoyloxy)ethyl)hexanamido], the “Particle diameter of Preparetion” value is reported as 133.0 nm.

In the case of CCCCCCCC/C=C\CCCCCCCC(=O)O[C@@H]1CN(C(=O)CCN(C)C)C[C@H]1OC(=O)CCCCCCC/C=C\CCCCCCCC [Compound 30, (3R,4R)-1-(3-(Dimethylamino)propanoyl)pyrrolidine-3,4-diyl di((Z)-octadec-9-enoate)], the “Particle diameter of Preparetion” value is reported as 132.7 nm.

With CCCCCCCC/C=C\CCCCCCCCCCO[C@@H]1CNC[C@H]1OCCCCCCCCCC/C=C\CCCCCCCC [Compound 42, (3R,4R)-3,4-bis((Z)-Icos-11-enyloxy)pyrrolidine] the “Particle diameter of Preparetion” value was 131.3 nm.

With CCCCCC/C=C\CCCCCCCCOC[C@@H]1CN(C)C[C@H]1COCCCCCCCC/C=C\CCCCCC (relative stereo) [Compound 51, trans-3,4-bis(((Z)-Hexadec-9-enyloxy)methyl)-1-methylpyrrolidine] the “Particle diameter of Preparetion” value was 123.9 nm.

In the case of CCCCC/C=C\C/C=C\CCCCCCCCOC[C@@H]1C[N+](C)(C)C[C@H]1COCCCCCCCC/C=C\C/C=C\CCCCC.[Cl-] (relative stereo) [Compound 112, trans-1,1-Dimethyl-3,4-bis(((9Z,12Z)-octadec-9,12-dienyloxy)methyl)pyrrolidinium chloride], the “Particle diameter of Preparetion” value is reported as 119.2 nm.

For CCCCCCCCCCCCCCOCCN(C)CCOCCCCCCCCCCCCCC [Compound 34, N-Methyl-N,N-bis(2-(tetradecyloxy)ethyl)amine], the “Particle diameter of Preparetion” value was 165.7 nm.

With CCCCCCCCCCCCCCCCCCOCCNCCOCCCCCCCCCCCCCCCCCC [Compound 71, bis(2-(Octadecyloxy)ethyl)amine] the “Particle diameter of Preparetion” value was 148.4 nm.

In the case of CCCCC/C=C\C/C=C\CCCCCCCCO[C@@H]1CN(C(=O)[C@@H](N)CCCCN)C[C@H]1OCCCCCCCC/C=C\C/C=C\CCCCC [Compound 31, (3R,4R)-1-((5)-2,6-Diaminohexanoyl)-3,4-bis((9Z,12Z)-octadec-9,12-dienyloxy)pyrrolidine], the “Particle diameter of Preparetion” value is reported as 100.7 nm.

For CCCCCC/C=C\CCCCCCCCOC[C@@H]1CNC[C@H]1COCCCCCCCC/C=C\CCCCCC (relative stereo) [Compound 44, trans-3,4-bis(((Z)-Hexadec-9-enyloxy)methyl)pyrrolidine], the “Particle diameter of Preparetion” value was 143.5 nm.

For CCCCCCCCCCC/C=C\CCCCCOCCN(C)CCOCCCCC/C=C\CCCCCCCCCCC [Compound 36, N-Methyl-N,N-bis(2-((Z)-octadec-6-enyloxy)ethyl)amine], the “Particle diameter of Preparetion” value was 137.2 nm.

In the case of CCCCCCCC/C=C\CCCCCCCCOCCN(CCOCCCCCCCC/C=C\CCCCCCCC)C(=O)[C@@H](N)CN [Compound 92, (S)-2,3-Diamino-N,N-bis(2-((Z)-octadec-9-enyloxy)ethyl)propanamido], the “Particle diameter of Preparetion” value is reported as 143.9 nm.

In the case of CCCCCCCC/C=C\CCCCCCCCO[C@@H]1CN(Cc2ccccc2)C[C@H]1OCCCCCCCC/C=C\CCCCCCCC [Compound VI-4, (3R,4R)-1-Benzyl-3,4-bis((Z)-octadec-9-enyloxy)pyrrolidine, reference compound], the “average particle diameter” value is reported as 157.8 nm.

With CCCCC/C=C\C/C=C\CCCCCCCCCCO[C@@H]1CNC[C@H]1OCCCCCCCCCC/C=C\C/C=C\CCCCC [Compound 8, (3R,4R)-3,4-bis((11Z,14Z)-Icos-11,14-dienyloxy)pyrrolidine] the “Particle diameter of Preparetion” value was 143.8 nm.

For CCCCCCCC/C=C\CCCCCCCC(=O)OCCN(CCOC(=O)CCCCCCC/C=C\CCCCCCCC)C(=O)OCCCN(C)C [Compound 116, 3-(Dimethylamino)propyl bis(2-((Z)-1-oxooctadec-9-enyloxy)ethyl)carbamate], the “Particle diameter of Preparetion” value was 154.1 nm.

In the case of CCCCC/C=C\C/C=C\CCCCCCCCCCOCCN(C)CCOCCCCCCCCCC/C=C\C/C=C\CCCCC [Compound 79, N,N-bis(2-((11Z,14Z)-Icos-11,14-dienyloxy)ethyl)-N-methylamine], the “Particle diameter of Preparetion” value is reported as 116.5 nm.

In the case of CCCCCCCC/C=C\CCCCCCCC(=O)O[C@@H]1CN(C(=O)CN(C)C)C[C@H]1OC(=O)CCCCCCC/C=C\CCCCCCCC [Compound 27, (3R,4R)-1-(2-(Dimethylamino)acetyl)pyrrolidine-3,4-diyl di((Z)-octadec-9-enoate)], the “Particle diameter of Preparetion” value is reported as 135.2 nm.

With CCCC/C=C\CCCCCCCCOCCNCCOCCCCCCCC/C=C\CCCC [Compound 68, bis(2-((Z)-Tetradec-9-enyloxy)ethyl)amine] the “Particle diameter of Preparetion” value was 132.4 nm.

For CCCCC/C=C\C/C=C\CCCCCCCCO[C@@H]1CN(CC(O)COC)C[C@H]1OCCCCCCCC/C=C\C/C=C\CCCCC (stereo partly drawn) [Compound 55, 1-(3R,4R)-3,4-bis(((9Z,12Z)-Octadec-9,12-dienyloxy)pyrrolidine-1-yl)-3-methoxypropan-2-ol], the “Particle diameter of Preparetion” value was 139.6 nm.

With CCCCC/C=C\C/C=C\CCCCCCCCO[C@H]1CN(C)C[C@@H]1OCCCCCCCC/C=C\C/C=C\CCCCC (stereo in doubt) [Compound 50, (3S,4S)-1-Methyl-3,4-bis((9Z,12Z)-octadec-9,12-dienyloxy)pyrrolidine] the “Particle diameter of Preparetion” value was 129.2 nm.

With CCCCCCCC/C=C\CCCCCCCC(=O)O[C@@H]1CNC[C@H]1OC(=O)CCCCCCC/C=C\CCCCCCCC [Compound 9, (3R,4R)-Pyrrolidine-3,4-diyl di((Z)-octadec-9-enoate)] the “Particle diameter of Preparetion” value was 141.9 nm.

In the case of CCCCCCCCCCCCCCCCCCO[C@@H]1CN(C)C[C@H]1OCCCCCCCCCCCCCCCCCC [Compound 46, (3R,4R)-1-Methyl-3,4-bis(octadecyloxy)pyrrolidine], the “Particle diameter of Preparetion” value is reported as 192.0 nm.

For CCCCCCCCCCCCCCO[C@@H]1CN(C)C[C@H]1OCCCCCCCCCCCCCC [Compound 13, (3R,4R)-1-Methyl-3,4-bis(tetradecyloxy)pyrrolidine], the “Particle diameter of Preparetion” value was 150.2 nm.
